In general, IC50 refers to the point on the concentration scale where inhibition reaches its midpoint. Low values mean inhibition by little substance, high ones a need for much substance.

Results on 23 molecules are retold here after patent US20210214375A1 (LUNDBECK LA JOLLA RESEARCH CENTER, INC., priority 2017, published 2021).

In one assay the target is T1, MGLL (Mus musculus, UniProt O35678).
T1 construct: Brain; from tissue; host or cells: mouse brain proteome
T1 sequence (O35678 1-303): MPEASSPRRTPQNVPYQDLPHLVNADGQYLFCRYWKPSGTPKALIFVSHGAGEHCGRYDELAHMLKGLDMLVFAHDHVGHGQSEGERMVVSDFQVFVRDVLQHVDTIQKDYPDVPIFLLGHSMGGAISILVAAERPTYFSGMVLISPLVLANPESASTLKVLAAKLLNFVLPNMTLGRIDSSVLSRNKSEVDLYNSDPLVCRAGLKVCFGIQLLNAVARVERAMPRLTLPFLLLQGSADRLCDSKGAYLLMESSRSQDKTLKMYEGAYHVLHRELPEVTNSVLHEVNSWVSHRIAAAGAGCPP
As to the kind of experiment: In vitro competitive activity-based protein profiling, mouse brain proteome. It counts as biochemical. Here is the method:
[Worded in the source for another species; this species is reported under the same test.] (§1) Proteomes (human prefrontal cortex or cell membrane fractions) (50 μL, 1.0 mg/mL total protein concentration) were preincubated with varying concentrations of inhibitors at 37° C. After 30 min, FP—Rh or HT-01 (1.0 μL, 50 μM in DMSO) was added and the mixture was incubated for another 30 min at room temperature. Reactions were quenched with SDS loading buffer (15 μL-4×) and run on SDS-PAGE.

For another assay, the target named is T2, ABHD6 (Mus musculus, UniProt Q8R2Y0).
T2 construct: Brain; from tissue; host or cells: mouse brain proteome
T2 sequence (Q8R2Y0 1-336): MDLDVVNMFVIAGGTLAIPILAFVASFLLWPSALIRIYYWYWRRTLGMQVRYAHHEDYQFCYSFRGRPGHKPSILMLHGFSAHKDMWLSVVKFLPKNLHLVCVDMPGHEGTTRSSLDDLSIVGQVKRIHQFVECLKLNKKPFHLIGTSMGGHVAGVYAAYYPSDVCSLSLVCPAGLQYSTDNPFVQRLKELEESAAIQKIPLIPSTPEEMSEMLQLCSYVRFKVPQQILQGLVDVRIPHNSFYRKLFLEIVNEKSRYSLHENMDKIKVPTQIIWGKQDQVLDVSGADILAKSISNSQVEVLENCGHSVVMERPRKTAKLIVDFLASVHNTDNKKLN
As to the kind of experiment: In vitro competitive activity-based protein profiling, mouse brain proteome, ABHD6. The format is biochemical. The settings on record: mouse. Here is the method: [Worded in the source for another target; this target is reported under the same test.] as §1

`Cc1cccc(CN2CC3(CCN(C(=O)OC(C(F)(F)F)C(F)(F)F)CC3)C2)c1` [Example 86, 1,1,1,3,3,3-Hexafluoropropan-2-yl 2-(3-methylbenzyl)-2,7-diazaspiro[3.5]nonane-7-carboxylate]: the IC50 at MGLL and at ABHD6 was under 100 nM each time.

Turning to `O=C(OC(C(F)(F)F)C(F)(F)F)N1CCC2(CC1)CN(Cc1cccc(C(F)(F)F)c1)C2` [Example 89, 1,1,1,3,3,3-Hexafluoropropan-2-yl 2-(3-(trifluoromethyl)benzyl)-2,7-diazaspiro[3.5]nonane-7-carboxylate], the IC50 at MGLL and at ABHD6 was under 100 nM each time.

For `O=C(OC(C(F)(F)F)C(F)(F)F)N1CC2(CCN(Cc3c(N4CCCC4)cccc3C(F)(F)F)CC2)C1` [Example 148, 1,1,1,3,3,3-Hexafluoropropan-2-yl 7-(2-(pynrolidin-1-yl)-4-(trifluoromethyl)benzyl)-2,7-diazaspiro[3.5]nonane-2-carboxylate], the IC50 at MGLL and on ABHD6 was 100 to 1000 nM in each case.

For `CC(=O)N1CCCc2cccc(CN3CCC4(CC3)CN(C(=O)OC(C(F)(F)F)C(F)(F)F)C4)c21` [Example 152, 1,1,1,3,3,3-Hexafluoropropan-2-yl 7-((1-acetyl-1,2,3,4-tetrahydroquinolin-8-yl)methyl)-2,7-diazaspiro[3.5]nonane-2-carboxylate], the IC50 at MGLL and on ABHD6 was under 100 nM each time.

Consider `CN1CC2(CCN(c3cc(Cl)ccc3CN3CCN(C(=O)OC(C(F)(F)F)C(F)(F)F)CC3)C2)C1` [Example 169, 1,1,1,3,3,3-Hexafluoropropan-2-yl 4-(4-chloro-2-(2-methyl-2,6-diazaspiro[3.4]octan-6-yl)benzyl)piperazine-1-carboxylate], for which the figures for the IC50 on MGLL and at ABHD6 were 100 to 1000 nM and over 1000 nM, respectively.

Consider `CCN1CCC2(CCN(c3cc(Cl)ccc3CN3CCN(C(=O)OC(C(F)(F)F)C(F)(F)F)CC3)CC2)C1` [Example 170, 1,1,1,3,3,3-Hexafluoropropan-2-yl 4-(4-chloro-2-(2-ethyl-2,8-diazaspiro[4.5]decan-8-yl)benzyl)piperazine-1-carboxylate], for which the IC50 was 100 to 1000 nM at MGLL and over 1000 nM at ABHD6.

Consider `CCN1CC2(CCN(c3cc(Cl)ccc3CN3CCN(C(=O)OC(C(F)(F)F)C(F)(F)F)CC3)C2)C1` [Example 173, 1,1,1,3,3,3-Hexafluoropropan-2-yl 4-(4-chloro-2-(2-ethyl-2,6-diazaspiro[3.4]octan-6-yl)benzyl)piperazine-1-carboxylate], for which the IC50 on MGLL is 100 to 1000 nM; on ABHD6 it was over 1000 nM.

Consider `O=C(OC(C(F)(F)F)C(F)(F)F)N1CCC2(CCN(Cc3ccc(C(F)(F)F)cc3N3CC4COCC4C3)CC2)C1` (stereo not shown) [Example 188, 1,1,1,3,3,3-Hexafluoropropan-2-yl 8-(2-(tetrahydro-1H-furo[3,4-c]pyrrol-5(3H)-yl)-4-(trifluoromethyl)benzyl)-2,8-diazaspiro[4.5]decane-2-carboxylate], for which the IC50 was 100 to 1000 nM at MGLL and over 1000 nM at ABHD6.

With `CC(=O)N1CCCc2cccc(CN3CCC4(CC3)CCN(C(=O)OC(C(F)(F)F)C(F)(F)F)C4)c21` [Example 193, 1,1,1,3,3,3-Hexafluoropropan-2-yl 8-((1-acetyl-1,2,3,4-tetrahydroquinolin-8-yl)methyl)-2,8-diazaspiro[4.5]decane-2-carboxylate], the IC50 at MGLL and on ABHD6 was over 1000 nM each time.

For the molecule `CC(=O)N1CC2CN(c3cc(C(F)(F)F)ccc3CN3CCN(C(=O)OC(C(F)(F)F)C(F)(F)F)CC3)CC2C1` (stereo not shown) [Example 200, 1,1,1,3,3,3-Hexafluoropropan-2-yl 4-(2-(5-acetylhexahydropyrrolo[3,4-c]pyrrol-2(1H)-yl)-4-(trifluoromethyl)benzyl)piperazine-1-carboxylate], the IC50 was under 100 nM on MGLL and over 1000 nM on ABHD6.

For `CS(=O)(=O)N1CC2CN(c3cc(C(F)(F)F)ccc3CN3CCN(C(=O)OC(C(F)(F)F)C(F)(F)F)CC3)CC2C1` (stereo not shown) [Example 201, 1,1,1,3,3,3-Hexafluoropropan-2-yl 4-(2-(5-(methylsulfonyl)hexahydropyrrolo[3,4-c]pyrrol-2(1H)-yl)-4-(trifluoromethyl)benzyl)piperazine-1-carboxylate], the IC50 was under 100 nM at MGLL and over 1000 nM on ABHD6.

For `CC(=O)N1CC2CN(c3cc(Cl)ccc3CN3CCN(C(=O)OC(C(F)(F)F)C(F)(F)F)CC3)CC2C1` (stereo not shown) [Example 202, 1,1,1,3,3,3-Hexafluoropropan-2-yl 4-(2-(5-acetylhexahydro-pyrrolo[3,4-c]pyrrol-2(1H)-yl)-4-chlorobenzyl) piperazine-1-carboxylate], the IC50 on MGLL is 100 to 1000 nM; on ABHD6 it was over 1000 nM.

With `CS(=O)(=O)N1CC2CN(c3cc(Cl)ccc3CN3CCN(C(=O)OC(C(F)(F)F)C(F)(F)F)CC3)CC2C1` (stereo not shown) [Example 203, 1,1,1,3,3,3-Hexafluoropropan-2-yl 4-(4-chloro-2-(5-(methylsulfonyl)hexahydropyrrolo[3,4-c]pyrrol-2(1H)-yl)benzyl)piperazine-1-carboxylate], the IC50 is 100 to 1000 nM on MGLL and over 1000 nM at ABHD6.

Take `CC(=O)N1CCCC12CCN(c1cc(Cl)ccc1CN1CCN(C(=O)OC(C(F)(F)F)C(F)(F)F)CC1)CC2` [Example 204, 1,1,1,3,3,3-Hexafluoropropan-2-yl 4-(2-(1-acetyl-1,8-diazaspiro[4.5]decan-8-yl)-4-chlorobenzyl) piperazie-1-carboxylate]: the half-maximal inhibitory concentration (IC50) is 100 to 1000 nM on MGLL and over 1000 nM on ABHD6.

As to `CS(=O)(=O)N1CCCC12CCN(c1cc(Cl)ccc1CN1CCN(C(=O)OC(C(F)(F)F)C(F)(F)F)CC1)CC2` [Example 205, 1,1,1,3,3,3-Hexafluoropropan-2-yl 4-(4-chloro-2-(1-(methylsulfonyl)-1,8-diazaspiro[4.5]decan-8-yl)benzyl)piperazine-1-carboxylate], the IC50 at MGLL is 100 to 1000 nM; on ABHD6, over 1000 nM.

On to `CN1CC2CN(c3cc(Cl)ccc3CN3CCN(C(=O)OC(C(F)(F)F)C(F)(F)F)CC3)CC2C1` (stereo not shown) [Example 206, 1,1,1,3,3,3-Hexafluoropropan-2-yl 4-(4-chloro-2-(5-methylhexahydro-pyrrolo[3,4-c]pyrrol-2(1H)-yl)benzyl)piperazine-1-carboxylate], for which the figures for the IC50 at MGLL and at ABHD6 were 100 to 1000 nM and over 1000 nM, respectively.

Consider `CC(=O)N1CCCC12CCN(c1cc(C(F)(F)F)ccc1CN1CCN(C(=O)OC(C(F)(F)F)C(F)(F)F)CC1)CC2` [Example 208, 1,1,1,3,3,3-Hexafluoropropan-2-yl 4-(2-(1-acetyl-1,8-diazaspiro[4.5]decan-8-yl)-4-(trifluoromethyl)benzyl)piperazine-1-carboxylate], for which the results for the IC50 on MGLL and on ABHD6 were 100 to 1000 nM and over 1000 nM, respectively.

In the case of `CS(=O)(=O)N1CCCC12CCN(c1cc(C(F)(F)F)ccc1CN1CCN(C(=O)OC(C(F)(F)F)C(F)(F)F)CC1)CC2` [Example 209, 1,1,1,3,3,3-Hexafluoropropan-2-yl-((2-(1-(methylsulfonyl)-1,8-diazaspiro[4.5]decan-8-yl)-4-(trifluoromethyl)benzyl)piperazine-1-carboxylate], the IC50 on MGLL is under 100 nM; on ABHD6, 100 to 1000 nM.

`CN1CCCC12CCN(c1cc(Cl)ccc1CN1CCN(C(=O)OC(C(F)(F)F)C(F)(F)F)CC1)CC2` [Example 214, 1,1,1,3,3,3-Hexafluoropropan-2-yl 4-(4-chloro-2-(1-methyl-1,8-diazaspiro[4.5]decan-8-yl)benzyl)piperazine-1--carboxylate]: the IC50 on MGLL is 100 to 1000 nM; at ABHD6, over 1000 nM.

Take `CN1CCCC12CCN(c1cc(C(F)(F)F)ccc1CN1CCN(C(=O)OC(C(F)(F)F)C(F)(F)F)CC1)CC2` [Example 215, 1,1,1,3,3,3-Hexafluoropropan-2-yl 4-(2-(1-methyl-1,8-diazaspiro[4.5]decan-8-yl)-4-(trifluoromethyl)benzyl)piperazine-1-carboxylate]: the IC50 at MGLL is 100 to 1000 nM; at ABHD6 it was over 1000 nM.

As for `CS(=O)(=O)N1CCc2cccc(CN3CCC4(CC3)CCN(C(=O)OC(C(F)(F)F)C(F)(F)F)C4)c2C1` [Example 217, 1,1,1,3,3,3-Hexafluoropropan-2-yl 8-((2-(methylsulfonyl)-1,2,3,4-tetrahydroisoquinolin-8-yl)methyl)-2,8-diazaspiro[4.5]decane-2-carboxylate], the values for the IC50 at MGLL and on ABHD6 were under 100 nM and 100 to 1000 nM, respectively.

With `CC(=O)N1CC2(CCN(c3ccccc3CN3CCC34CCN(C(=O)OC(C(F)(F)F)C(F)(F)F)CC4)C2)C1` [Example 228, 1,1,1,3,3,3-Hexafluoropropan-2-yl 1-(2-(2-acetyl-2,6-diazaspiro[3.4]octan-6-yl)benzyl)-1,7-diazaspiro[3.5]nonane-7-carboxylate], the IC50 was 100 to 1000 nM at MGLL and over 1000 nM at ABHD6.

As to `CS(=O)(=O)N1CCC2(CCN(c3cc(Cl)cc(CN4CCCC45CN(C(=O)OC(C(F)(F)F)C(F)(F)F)C5)c3)CC2)C1` [Example 232], the values for the IC50 on MGLL and at ABHD6 were over 1000 nM and 100 to 1000 nM, respectively.
